This note sets out measurements from patent US9469615B2, “Quinoxalines and AZA-quinoxalines as CRTH2 receptor modulators” (Merck Sharp & Dohme Corp., priority 2010, dated 2016).

In this assay the target is T1, hCRTH2 (Homo sapiens, UniProt Q9Y5Y4).
T1 construct: expressed in transfected cells; host or cells: HEK (human embryonic kidney) cells expressing hCRTH2; membrane preparation
T1 sequence (Q9Y5Y4 1-395): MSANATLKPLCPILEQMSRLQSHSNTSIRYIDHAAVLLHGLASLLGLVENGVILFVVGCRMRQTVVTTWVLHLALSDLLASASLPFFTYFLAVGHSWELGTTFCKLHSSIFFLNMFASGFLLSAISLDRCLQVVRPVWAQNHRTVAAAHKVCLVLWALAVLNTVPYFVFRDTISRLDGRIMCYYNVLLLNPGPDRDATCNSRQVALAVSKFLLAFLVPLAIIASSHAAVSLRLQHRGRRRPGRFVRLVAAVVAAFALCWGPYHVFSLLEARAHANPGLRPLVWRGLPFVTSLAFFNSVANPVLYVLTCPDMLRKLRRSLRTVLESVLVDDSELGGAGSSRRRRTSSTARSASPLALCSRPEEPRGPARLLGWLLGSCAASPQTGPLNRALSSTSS
Description: Radioligand binding assay ([3H]PGD2 competition, HEK-hCRTH2 membranes). The procedure, abridged:
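Displacement of 3.0 nM [3H]PGD2 from human CRTH2 expressed in HEK membranes was measured at room temperature over 60 min. Unlabelled PGD2 at 10 μM gave non-specific binding.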

[1] abbreviates: [3H]PGD2 binding, rated A-E (Table A).
[2] abbreviates: [3H]PGD2 binding, values in text.

Under setting [1], `N#Cc1ccc(CNC(=O)c2ccc3nc(-c4ccc(Cl)cc4)c(CCCCC(=O)O)nc3c2)cc1` [16K, 3-(4-chlorophenyl)-7-[[[(4-cyanophenyl)methyl]amino]carbonyl]-2-quinoxalinepentanoic acid] displayed a Ki of 0.1 to 2 nM.

On to `O=C(O)CCCNc1nc2cc(C(=O)N3CC[C@H](c4ccccc4)C3)ccc2nc1-c1ccccc1` [44M, (R)-4-((3-phenyl-7-(3-phenylpyrrolidine-1-carbonyl)quinoxalin-2-yl)amino)butanoic acid], for which, under setting [1], the Ki lay in the range of 2.1 to 20 nM.

As for `C[C@@H](NC(=O)c1ccc2nc(-c3ccccc3)c(CCCCC(=O)O)nc2c1)c1ccccc1C(F)(F)F` [15BL, 5-[3-phenyl-7-({(1R)-1-[2-(trifluoromethyl)phenyl]ethyl}carbamoyl)quinoxalin-2-yl]pentanoic acid], the Ki by setting is: under setting [1], 20.1 to 200 nM; under setting [2], 69.9 nM.

With `O=C(O)CCCCc1nc2cc(C(=O)N3CCCCC3c3ccccc3)ccc2nc1-c1ccc(Cl)cc1` (centres unmarked) [compound 645, 5-(3-(4-chlorophenyl)-7-(2-phenylpiperidine-1-carbonyl)quinoxalin-2-yl)pentanoic acid], the Ki ([3H]PGD2 competition, Table B) fell in the range of 2.1 to 20 nM.

Regarding `O=C(O)CCCCc1nc2cc(C(=O)N[C@@H]3CCOc4cc(F)c(F)cc43)ccc2nc1-c1ccccc1` [compound 642, (R)-5-(7-((6,7-difluorochroman-4-yl)carbamoyl)-3-phenylquinoxalin-2-yl)pentanoic acid], the Ki ([3H]PGD2 competition, Table B) was 2.1 to 20 nM.

Consider `O=C(O)CCCCc1nc2cc(C(=O)N[C@@H]3CCOc4cc(F)c(F)cc43)ccc2nc1-c1ccc(F)cc1` [compound 538, (R)-5-(7-((6,7-difluorochroman-4-yl)carbamoyl)-3-(4-fluorophenyl)quinoxalin-2-yl)pentanoic acid], for which the Ki ([3H]PGD2 competition, Table B) was in the range of 2.1 to 20 nM.

Turning to `O=C(O)CCCCc1nc2cc(C(=O)N3CC(c4ccc(F)cc4)C3)ccc2nc1-c1ccc(Cl)cc1` [compound 606, 5-(3-(4-chlorophenyl)-7-(3-(4-fluorophenyl)azetidine-1-carbonyl)quinoxalin-2-yl)pentanoic acid], under “[3H]PGD2 competition, Table B”, the Ki was in the range of 2.1 to 20 nM.

For `CC(CCc1nc2cc(C(=O)NCc3ccc(OC(F)(F)F)cc3)ccc2nc1-c1ccc(C(F)(F)F)cc1)CC(=O)O` (stereo not drawn) [17Y, beta-methyl-7-[[[[4-(trifluoromethoxy)phenyl]methyl]amino]carbonyl]-3-[4-(trifluoromethyl)phenyl]-2-quinoxalinepentanoic acid], the Ki under setting [1] was in the range of 2.1 to 20 nM.

`O=C(O)Cc1cccc(CCCc2nc3cc(C(=O)N4CCC(c5ccccc5)CC4)ccc3nc2-c2ccc(Cl)cc2)c1` [compound 32, 2-(3-(3-(3-(4-chlorophenyl)-7-(4-phenylpiperidine-1-carbonyl)quinoxalin-2-yl)propyl)phenyl)acetic acid] yielded a Ki under setting [1] of 2.1 to 20 nM.

For the setting “[3H]PGD2 competition, Table B”, `O=C(N[C@@H]1CCc2cc(F)ccc21)c1ccc2nc(-c3ccc(F)cc3)c(CCCC(F)(F)C(=O)O)nc2c1` [compound 476, (R)-2,2-dilluoro-5-(7-((5-fluoro-2,3-dihydro-1H-inden-1-yl)carbamoyl)-3-(4-fluorophenyl)quinoxalin-2-yl)pentanoic acid] showed a Ki of 20.1 to 200 nM.

Molecule `O=C(O)Cc1ccc(CCc2nc3cc(C(=O)NCc4cccc(Cl)c4)ccc3nc2-c2ccc(Cl)cc2)cc1` [compound 159, 4-[2-[3-(4-chlorophenyl)-7-[[[(3-chlorophenyl)methyl]amino]carbonyl]-2-quinoxalinyl]ethyl] benzeneacetic acid] registered a Ki under setting [1] of 201 to 700 nM and a Ki under setting [2] of 564 nM.

The molecule `O=C(O)CCCCc1nc2cc(C(=O)N3CCN(c4nccs4)CC3)ccc2nc1-c1ccccc1` [compound 306, 5-(3-phenyl-7-(4-(thiazol-2-yl)piperazine-1-carbonyl)quinoxalin-2-yl)pentanoic acid] came in with a Ki ([3H]PGD2 competition, Table B) of 20.1 to 200 nM.

In turn, `CC(NC(=O)c1ccc2nc(-c3ccc(C(F)(F)F)cc3)c(CCCCC(=O)O)nc2c1)c1ccncc1` (centres unmarked) [3AA, 7-[[[1-(4-pyridinyl)ethyl]-amino]carbonyl]-3-[4-(trifluoromethyl)-phenyl]-2-quinoxaline-pentanoic acid] had a Ki under setting [1] of 2.1 to 20 nM.

As to `C[C@@H](CCCc1nc2cc(C(=O)N[C@@H]3CCc4cc(Cl)ccc43)ccc2nc1-c1ccc(F)cc1)C(=O)O` [compound 522, (S)-5-(7-(((R)-5-chloro-2,3-dihydro-1H-inden-1-yl)carbamoyl)-3-(4-fluorophenyl)quinoxalin-2-yl)-2-methylpentanoic acid], the Ki ([3H]PGD2 competition, Table B) is 2.1 to 20 nM.

For the molecule `O=C(O)CCCCc1nc2cc(C(=O)N[C@H]3COc4cc(F)ccc43)ccc2nc1-c1ccc(Cl)cc1` [compound 313, (R)-5-(3-(4-chlorophenyl)-7-((6-fluoro-2,3-dihydrobenzofuran-3-yl)carbamoyl)quinoxalin-2-yl)pentanoic acid], the Ki ([3H]PGD2 competition, Table B) lay within 2.1 to 20 nM.

For the molecule `O=C(O)CCCCc1nc2cc(C(=O)NCc3ccc(OC(F)(F)F)cc3)ccc2nc1-c1ccc(C(F)(F)F)cc1` [compound 156, 7-[[[[4-(trifluoromethoxy)phenyl]methyl]amino]carbonyl]-3-[4-(trifluoromethyl)phenyl]-2-quinoxalinepentanoic acid], the Ki under setting [1] was 2.1 to 20 nM.

Under setting [1], `O=C(O)CCCCc1nc2cc(C(=O)N3CCC(c4ncccn4)CC3)ccc2nc1-c1ccc(F)cc1` [compound 244, 3-(4-fluorophenyl)-7-[[4-(2-pyrimidinyl)-1-piperidinyl]carbonyl]-2-quinoxalinepentanoic acid] displayed a Ki of 2.1 to 20 nM.

For `O=C(O)CCCCc1nc2cc(C(=O)NC3Cc4ccccc4C3)ccc2nc1-c1ccc(Cl)cc1` [16AS, 3-(4-ch1orophenyl)-7-[[(2,3-dihydro-1H-inden-2-yl)amino]carbonyl]-2-quinoxalinepentanoic acid], the inhibition constant (Ki) under setting [1] was in the range of 0.1 to 2 nM.

The molecule `CC(CCCc1nc2cc(C(=O)NCc3cccc(F)c3)ccc2nc1-c1ccc(Cl)cc1)C(=O)O` (stereo not drawn) [compound 160, 3-(4-chlorophenyl)-7-[[[(3-fluorophenyl)methyl]amino]carbonyl]-alpha-methyl-2-quinoxalinepentanoic acid] gave a Ki under setting [1] of 2.1 to 20 nM.

On to `O=C(O)CCCCc1nc2cc(C(=O)N[C@@H]3CCc4cc(F)ccc43)ccc2nc1-c1ccc(Cl)cc1` [compound 381, (R)-5-(3-(4-chlorophenyl)-7-((5-fluoro-2,3-dihydro-1H-inden-1-yl)carbamoyl)quinoxalin-2-yl)pentanoic acid], for which the Ki ([3H]PGD2 competition, Table B) was in the range of 0.1 to 2 nM.

Under setting [1], `C[C@H](NC(=O)c1ccc2nc(-c3ccc(F)cc3)c(CCCCC(=O)O)nc2c1)c1ccc(Cl)cc1` [compound 131, 7-[[[1(S)-(4-chlorophenyl)ethyl]amino]carbonyl]-3-(4-fluorophenyl)-2-quinoxalinepentanoic acid] had a Ki of 2.1 to 20 nM.

For the molecule `O=C(O)CCCCc1nc2cc(C(=O)NC3NC(=O)c4ccccc43)ccc2nc1-c1ccc(Cl)cc1` (centres unmarked) [compound 319, 5-(3-(4-chlorophenyl)-7((3-oxoisoindolin-1-yl)carbamoyl)quinoxalin-2-yl)pentanoic acid], the Ki ([3H]PGD2 competition, Table B) fell in the range of 2.1 to 20 nM.

In the case of `O=C(O)CCCCc1nc2cc(C(=O)NCc3cccnc3)ccc2nc1-c1ccccc1` [15AG, 5-{3-phenyl-7-[(pyridin-3-ylmethyl)carbamoyl]quinoxalin-2-yl} pentanoic acid], under setting [1], the Ki fell in the range of 2.1 to 20 nM.

In turn, `N#Cc1ccc(-c2nc3ccc(C(=O)N4CCC(c5ccccc5)CC4)cc3nc2CCCCC(=O)O)cc1` [26P, 3-(4-cyanophenyl)-7-[(4-phenyl-1-piperidinyl)carbonyl]-2-quinoxalinepentanoic acid] came in with a Ki under setting [1] of 2.1 to 20 nM.

Regarding `C[C@@H](NC(=O)c1ccc2nc(-c3ccccc3)c(CCCCC(=O)O)nc2c1)c1cncc2ccccc12` [compound 638, (R)-5-(7-((1-(isoquinolin-4-yl)ethyl)carbamoyl)-3-phenylquinoxalin-2-yl)pentanoic acid], the inhibitory constant (Ki) ([3H]PGD2 competition, Table B) lay in the range of 201 to 700 nM.

For `CN(Cc1ccccc1)C(=O)c1ccc2nc(-c3ccc(Cl)cc3)c(CCc3cc(F)cc(CC(=O)O)c3)nc2c1` [compound 448, 2-(3-(2-(7-(benzyl(methyl)carbamoyl)-3-(4-chlorophenyl)quinoxalin-2-yl)ethyl)-5-fluorophenyl) acetic acid], the Ki ([3H]PGD2 competition, Table B) is 0.1 to 2 nM.

Molecule `C[C@H](NC(=O)c1ccc2nc(-c3ccc(F)cc3)c(CCc3cccc(CC(=O)O)c3)nc2c1)c1ccc(F)cc1` [compound 196] returned a Ki under setting [1] of 20.1 to 200 nM.

Molecule `O=C(O)CCCCc1nc2cc(C(=O)N3CCO[C@@H](c4ccc(F)cc4)C3)ccc2nc1-c1ccc(Cl)cc1` [compound 613, (S)-5-(3-(4-chlorophenyl)-7-(2-(4-fluorophenyl)morpholine-4-carbonyl)quinoxalin-2-yl)pentanoic acid] had an inhibition constant Ki ([3H]PGD2 competition, Table B) of 20.1 to 200 nM.

Consider `N#CC1(c2ccccc2)CCN(C(=O)c2ccc3nc(-c4ccccc4)c(CCCCC(=O)O)nc3c2)CC1` [compound 124, 7-[(4-cyano-4-phenyl-1-piperidinyl)carbonyl]-3-phenyl-2-quinolaxinepentanoic acid], for which, under setting [1], the Ki fell in the range of 2.1 to 20 nM.

As for `C[C@@H](NC(=O)c1ccc2nc(-c3ccc(C#N)cc3)c(CCCCC(=O)O)nc2c1)c1ccc(F)cc1` [compound 215, 3-(4-cyanophenyl)-7-[[[1(R)-(4-fluorophenyl)ethyl]amino]carbonyl]-2-quinoxalinepentanoic acid], under setting [1], the Ki was 2.1 to 20 nM.
